Results on 22 compounds are retold here after patent publication US11987586B1 (TAKEDA PHARMACEUTICAL COMPANY LIMITED, priority 2022, dated 2024).

The test addresses T1, human OX2 receptor (Homo sapiens, UniProt O43614).
T1 construct: expressed in transfected cells
T1 sequence (O43614 1-444): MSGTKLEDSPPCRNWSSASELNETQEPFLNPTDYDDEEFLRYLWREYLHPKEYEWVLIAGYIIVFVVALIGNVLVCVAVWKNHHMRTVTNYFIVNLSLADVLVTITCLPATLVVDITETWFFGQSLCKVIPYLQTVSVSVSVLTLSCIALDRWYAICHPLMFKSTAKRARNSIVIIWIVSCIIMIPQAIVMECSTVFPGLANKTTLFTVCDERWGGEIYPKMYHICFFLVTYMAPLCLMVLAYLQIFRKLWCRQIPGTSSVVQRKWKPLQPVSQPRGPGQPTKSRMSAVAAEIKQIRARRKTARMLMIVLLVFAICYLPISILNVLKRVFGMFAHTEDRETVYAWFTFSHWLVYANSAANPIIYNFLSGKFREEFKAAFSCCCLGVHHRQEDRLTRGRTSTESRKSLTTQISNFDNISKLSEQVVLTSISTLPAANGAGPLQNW
The test is described as follows: Measurement of orexin type 2 receptor agonist activity (calcium fluorescence, Fluo-4, FDSS). Format: cell-based. As to conditions: 3 uM test compound; CHO cells expressing human OX2 receptor; DMSO = 0%, 10 nM orexin A (human) = 100%. An outline of the steps:
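Agonist activity (%) was normalised to the response to 10 nM final human orexin A (100%) and to the DMSO vehicle (0%). The response was measured as the Fluo-4 calcium signal, read kinetically over 1 min 40 s after compound addition to Fluo-4/probenecid-loaded stable CHO-K1 clones expressing human OX2 (aa 1-444).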
As for `Cc1cc(-c2c(F)cccc2F)c2c(-n3cc4n(c3=O)C[C@@H](NS(C)(=O)=O)C4(F)F)noc2n1` [Example 118, N-{(6R)-2-[4-(2,6-difluorophenyl)-6-methyl[1,2]oxazolo[5,4-b]pyridin-3-yl]-7,7-difluoro-3-oxo-2,5,6,7-tetrahydro-3H-pyrrolo[1,2-c]imidazol-6-yl}methanesulfonamide], the “OX2R agonist activity (3 uM, %)” value is reported as 91%.
The same measure for `CCS(=O)(=O)N[C@@H]1Cn2c(cn(-c3noc4cc(COC)c(F)c(-c5c(F)cc(F)cc5F)c34)c2=O)C1(F)F` [Example 239, N-{(6R)-7,7-difluoro-2-[5-fluoro-6-(methoxymethyl)-4-(2,4,6-trifluorophenyl)-1,2-benzoxazol-3-yl]-3-oxo-2,5,6,7-tetrahydro-3H-pyrrolo[1,2-c]imidazol-6-yl}ethanesulfonamide]: 95%.
In the case of `CCS(=O)(=O)NC1Cn2c(cn(-c3noc4ccc(F)c(-c5c(F)cc(F)cc5F)c34)c2=O)CC1(F)F` (single isomer, unassigned) [Example 246, N-{(6R*)-7,7-difluoro-2-[5-fluoro-4-(2,4,6-trifluorophenyl)-1,2-benzoxazol-3-yl]-3-oxo-2,3,5,6,7,8-hexahydroimidazo[1,5-a]pyridin-6-yl}ethanesulfonamide] it was 107%; in that of `O=c1n(-c2noc3ccc(F)c(-c4c(F)cc(F)cc4F)c23)cc2n1C[C@@H](NS(=O)(=O)C1CC1)C2(F)F` [Example 272, N-{(6R)-7,7-difluoro-2-[5-fluoro-4-(2,4,6-trifluorophenyl)-1,2-benzoxazol-3-yl]-3-oxo-2,5,6,7-tetrahydro-3H-pyrrolo[1,2-c]imidazol-6-yl}cyclopropanesulfonamide], 109%; in that of `CCS(=O)(=O)N[C@@H]1CN2C(=O)N(c3noc4cccc(-c5ccccc5OC)c34)CC[C@@H]2C1(F)F` [Example 322, N-{(4aR,6R)-5,5-difluoro-2-[4-(2-methoxyphenyl)-1,2-benzoxazol-3-yl]-1-oxooctahydropyrrolo[1,2-c]pyrimidin-6-yl}ethanesulfonamide], 99%.
The same measure for `O=C1N(c2noc3cc(OC(F)F)cc(-c4c(F)cc(F)cc4F)c23)CC[C@H]2N1C[C@@H](NS(=O)(=O)C1CC1)C2(F)F` [Example 316, N-{(4aR,6R)-2-[6-(difluoromethoxy)-4-(2,4,6-trifluorophenyl)-1,2-benzoxazol-3-yl]-5,5-difluoro-1-oxooctahydropyrrolo[1,2-c]pyrimidin-6-yl}cyclopropanesulfonamide]: 105%; for `CNS(=O)(=O)N[C@@H]1CN2C(=O)N(c3noc4cc(F)cc(-c5c(F)cccc5F)c34)C[C@@H]2C1(F)F` [Example 310, N-{(6R,7aR)-2-[4-(2,6-difluorophenyl)-6-fluoro-1,2-benzoxazol-3-yl]-7,7-difluoro-3-oxohexahydro-1H-pyrrolo[1,2-c]imidazol-6-yl}-N′-methylsulfuric diamide]: 100%.
On to `CCS(=O)(=O)N[C@@H]1CN2C(=O)N(c3noc4cccc(-c5cccs5)c34)CC[C@@H]2C1(F)F` [Example 328, N-{(4aR,6R)-5,5-difluoro-1-oxo-2-[4-(thiophen-2-yl)-1,2-benzoxazol-3-yl]octahydropyrrolo[1,2-c]pyrimidin-6-yl}ethanesulfonamide], for which the “OX2R agonist activity (3 uM, %)” value turned out to be 103%.
As to `CCS(=O)(=O)N[C@H]1Cc2c(C)n(-c3noc4cc(C(F)(F)F)cc(-c5c(F)cccc5F)c34)c(=O)n2C1` [Example 86, N-{(6S)-2-[4-(2,6-difluorophenyl)-6-(trifluoromethyl)-1,2-benzoxazol-3-yl]-1-methyl-3-oxo-2,5,6,7-tetrahydro-3H-pyrrolo[1,2-c]imidazol-6-yl}ethanesulfonamide], the “OX2R agonist activity (3 uM, %)” value was found to be 103%.
The same measure for `CCOc1cc(-c2c(F)cc(F)cc2F)c2c(N3CC[C@H]4N(C[C@@H](NS(=O)(=O)CC)C4(F)F)C3=O)noc2c1` [Example 307, N-{(4aR,6R)-2-[6-ethoxy-4-(2,4,6-trifluorophenyl)-1,2-benzoxazol-3-yl]-5,5-difluoro-1-oxooctahydropyrrolo[1,2-c]pyrimidin-6-yl}ethanesulfonamide]: 101%; for `CCS(=O)(=O)N[C@@H]1CN2C(=O)N(c3noc4cccc(-c5ccccc5Cl)c34)CC[C@@H]2C1(F)F` [Example 327, N-{(4aR,6R)-2-[4-(2-chlorophenyl)-1,2-benzoxazol-3-yl]-5,5-difluoro-1-oxooctahydropyrrolo[1,2-c]pyrimidin-6-yl}ethanesulfonamide]: 118%.
In the case of `CCS(=O)(=O)N[C@@H]1CN2C(=O)N(c3noc4cc(Cl)c(F)c(-c5c(F)cccc5F)c34)C[C@@H]2C1(F)F` [Example 79, N-{(6R,7aR)-2-[6-chloro-4-(2,6-difluorophenyl)-5-fluoro-1,2-benzoxazol-3-yl]-7,7-difluoro-3-oxohexahydro-1H-pyrrolo[1,2-c]imidazol-6-yl}ethanesulfonamide] it was 99%; in that of `Cc1cc2onc(-n3cc4n(c3=O)C[C@@H](NS(=O)(=O)N(C)C)C4(F)F)c2c(-c2c(F)cccc2F)n1` [Example 286, N′-{(6R)-2-[4-(2,6-difluorophenyl)-6-methyl[1,2]oxazolo[4,5-c]pyridin-3-yl]-7,7-difluoro-3-oxo-2,5,6,7-tetrahydro-3H-pyrrolo[1,2-c]imidazol-6-yl}-N,N-dimethylsulfuric diamide], 105%; in that of `CS(=O)(=O)N[C@@H]1CN2C(=O)N(c3noc4cc(OC(F)F)cc(-c5c(F)cc(F)cc5F)c34)C[C@@H]2C1(F)F` [Example 193, N-{(6R,7aR)-2-[6-(difluoromethoxy)-4-(2,4,6-trifluorophenyl)-1,2-benzoxazol-3-yl]-7,7-difluoro-3-oxohexahydro-1H-pyrrolo[1,2-c]imidazol-6-yl}methanesulfonamide], 103%.
In the case of `CCS(=O)(=O)N[C@@H]1Cn2c(cn(-c3noc4ccc(F)c(-c5c(F)cc(F)cc5F)c34)c2=O)C1(F)F` [Example 92, N-{(6R)-7,7-Difluoro-2-[5-fluoro-4-(2,4,6-trifluorophenyl)-1,2-benzoxazol-3-yl]-3-oxo-2,5,6,7-tetrahydro-3H-pyrrolo[1,2-c]imidazol-6-yl}ethanesulfonamide] it was 98%.
For the compound `CCS(=O)(=O)N[C@@H]1CN2C(=O)N(c3noc4cccc(-c5c(F)cccc5F)c34)C[C@@H]2C1(C)C` [Example 6, N-{(6S,7aS)-2-[4-(2,6-difluorophenyl)-1,2-benzoxazol-3-yl]-7,7-dimethyl-3-oxohexahydro-1H-pyrrolo[1,2-c]imidazol-6-yl}ethanesulfonamide], the “OX2R agonist activity (3 uM, %)” value was 96%.
As to `CCS(=O)(=O)N[C@@H]1CN2C(=O)N(c3noc4cc(OC(F)F)cc(-c5c(F)cc(F)cc5F)c34)CC[C@@H]2C1(F)F` [Example 303, N-{(4aR,6R)-2-[6-(difluoromethoxy)-4-(2,4,6-trifluorophenyl)-1,2-benzoxazol-3-yl]-5,5-difluoro-1-oxooctahydropyrrolo[1,2-c]pyrimidin-6-yl}ethanesulfonamide], the “OX2R agonist activity (3 uM, %)” value is listed as 103%.
For `CS(=O)(=O)N[C@@H]1Cn2c(cn(-c3noc4cc(OC(F)F)cc(-c5c(F)cc(F)cc5F)c34)c2=O)C1(F)F` [Example 113, N-{(6R)-2-[6-(difluoromethoxy)-4-(2,4,6-trifluorophenyl)-1,2-benzoxazol-3-yl]-7,7-difluoro-3-oxo-2,5,6,7-tetrahydro-3H-pyrrolo[1,2-c]imidazol-6-yl}methanesulfonamide], the “OX2R agonist activity (3 uM, %)” value was 102%.
The same measure for `CCS(=O)(=O)N[C@@H]1Cn2c(cn(-c3noc4nc(C)cc(-c5c(F)cc(F)cc5F)c34)c2=O)C1(F)F` [Example 190, N-{(6R)-7,7-difluoro-2-[6-methyl-4-(2,4,6-trifluorophenyl)[1,2]oxazolo[5,4-b]pyridin-3-yl]-3-oxo-2,5,6,7-tetrahydro-3H-pyrrolo[1,2-c]imidazol-6-yl}ethanesulfonamide]: 96%; for `Cc1cc2onc(-n3cc4n(c3=O)C[C@@H](NS(=O)(=O)N(C)C)C4(F)F)c2c(-c2c(F)cc(F)cc2F)n1` [Example 218, N′-{(6R)-7,7-difluoro-2-[6-methyl-4-(2,4,6-trifluorophenyl)[1,2]oxazolo[4,5-c]pyridin-3-yl]-3-oxo-2,5,6,7-tetrahydro-3H-pyrrolo[1,2-c]imidazol-6-yl}-N,N-dimethylsulfuric diamide]: 108%.
As for `Cc1cc2onc(N3CC[C@H]4N(C[C@@H](NS(C)(=O)=O)C4(F)F)C3=O)c2c(-c2c(F)cc(F)cc2F)n1` [Example 248, N-{(4aR,6R)-5,5-difluoro-2-[6-methyl-4-(2,4,6-trifluorophenyl)[1,2]oxazolo[4,5-c]pyridin-3-yl]-1-oxooctahydropyrrolo[1,2-c]pyrimidin-6-yl}methanesulfonamide], the “OX2R agonist activity (3 uM, %)” value was 107%.
The same measure for `CS(=O)(=O)N[C@H]1Cc2cn(-c3noc4cccc(-c5c(F)cccc5F)c34)c(=O)n2C1` [Example 26, N-{(6S)-2-[4-(2,6-difluorophenyl)-1,2-benzoxazol-3-yl]-3-oxo-2,5,6,7-tetrahydro-3H-pyrrolo[1,2-c]imidazol-6-yl}methanesulfonamide]: 97%.
